From US11419335B2, “N-arylated analogues and uses thereof” (University of Florida Research Foundation, Incorporated, priority 2016, dated 2022)

Tested on: MRSA BAA-1707 biofilms
Assay: Live/Dead staining of MRSA biofilms
Format: cell-based, Staphylococcus aureus
Description: A mid-log culture of MRSA BAA-1707 was diluted 1:1000-fold and 500 μL was transferred to each compartment of a four-compartment CELLview dish (Greiner Bio-One 627871). The dish was then incubated for 24 hours at 37° C. to establish MRSA-1707 biofilms. After this time, the cultures were removed and the plate was washed with 0.9% saline. The dish was then treated with test compounds in fresh media at various concentrations. DMSO was used as a negative control in this assay. The dish was incubated with the test compound for 24 hours at 37° C. After this time, the cultures were removed and the dish was washed with 0.9% saline for 2 minutes. Saline was then removed and 500 μL of the stain (Live/Dead BacLight Viability Kit, Invitrogen) were added for 15 minutes and left in the dark. After this time, the stain was removed and the dish was washed twice with 0.9% saline. Then the dish was fixed with 500 μL 4% paraformaldehyde in PBS for 30 minutes. Images of remaining MRSA biofilms were then taken with a fluorescence microscope.

## CCCCCCCCCCCCCCCCn1cc[n+](Cc2ccccc2)c1C [NH125, 3-benzyl-1-hexadecyl-2-methyl-1H-imidazol-3-ium bromide, reference compound]
FIG. 4, 24 hours after treatment
  clearance of MRSA biofilms (fluorescence images): potent clearance of MRSA biofilms
At 31.3 μM
  clearance of established biofilms (Live/Dead staining): effective clearance of established biofilms
